Source: patent publication US20220153751A1, “BIFUNCTIONAL COMPOUNDS” (BioTheryX, Inc., priority 2018, published 2022)

Columns and labels:
Assay type in all cases: cell-based
IL-1β = IL-1β inhibition assay, LPS-induced PBMCs / CD14+ monocytes (Meso Scale); conditions: 1 h pretreatment, 100 ng/mL LPS 18-24 h
Method: (§1) Either frozen primary blood mononuclear cells (PBMCs) or frozen CD14+ mobilized peripheral blood monocytes were purchased from AllCells (PB003F, Normal Peripheral Blood MNC (Alameda, Calif.)). Cells were quick thawed, washed 1-time with RPMI-1640 (10% FBS/1% Pen-Strep) and plated in 96 well plates at 200,000 cells per well. Cells were pretreated with DMSO only or with the indicated compound for 1 h and then induced with 100 ng/mL lipopolysaccharide (LPS) for 18-24 h. The supernatant was analyzed for IL-1β, IL-6, and TNFα, using Meso Scale assay according to manufacturer's protocol. The negative control wells were treated with DMSO.
(§2) In Table 6, the % inhibition values are reported as “A”, “B”, “C”, or “D”. “A” represents a % inhibition value of less than 50% (value <50%). “B” represents a % inhibition value of equal to or more than 50% and less than 70% (50%≤value<70%). “C” represents a % inhibition value of equal to or more than 70% and less than 90% (70%≤value<90%). “D” represents a % inhibition value of equal or more than 90% (value ≥90%). In Table 7, the fold-change values are reported as “A”, “B”, “C”, or “D”. “A” represents a fold-change value of equal to or less than 0.1 (value ≤0.1). “B” represents a fold-change value of more than 0.1 and equal to or less than 0.5 (0.1<value≤0.5). “C” represents a fold-change value of more than 0.5 and equal to or less than 1 (0.5<value≤1). “D” represents a fold-change value of more than 1 (value >1).

IL-6 = IL-6 inhibition assay, LPS-induced PBMCs / CD14+ monocytes (Meso Scale); conditions: 1 h pretreatment, 100 ng/mL LPS 18-24 h
Method: as §1, §2

TNF-α = TNF-α inhibition assay, LPS-induced PBMCs / CD14+ monocytes (Meso Scale); conditions: 1 h pretreatment, 100 ng/mL LPS 18-24 h
Method: as §1, §2

IL-2 = IL-2 fold-change assay, anti-CD3 stimulated PBMCs (Mesoscale); conditions: PBMC, PBMCs on anti-human CD3, 24 h, fold difference from the DMSO control
Method: For the IL-2 analysis, 96 well plates were precoated with 1 μg/mL anti-human CD3 antibody (OK3, eBioscience Inc., San Diego, Calif.). After washing with PBS, the indicated compound was added (50 μL/well) followed by PBMCs diluted at 3-4 million cells/mL (150 μL/well). Plates were incubated for 24 h and the supernatants collected for Mesoscale IL-2 analysis. IL-2 activity is measured as fold difference from the DMSO control.
as §2

MOLM-13 cells = experiment: MOLM-13 cell viability assay (CellTiter-Glo); conditions: Homo sapiens, MOLM-13, 72 h, 3 days, read-out: MOLM-13 Cell Viability % DMSO at 1 μM
In short: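 MOLM-13 cells at 2500 cells/well were exposed to compound for 3 days at 37 °C. Viability was read by CellTiter-Glo luminescence and expressed as % of DMSO control, binned A (<50%), B (50–<70%), C (70–<90%) or D (≥90%).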

IKAROS = molecular target: T1, IKAROS (Homo sapiens, UniProt Q13422+Q96SW2); experiment: IKAROS degradation assay (Western blot, MV-4-11 cells); conditions: MV4-11, 6-8 h
T1 construct: endogenous in cells; host or cells: MV-4-11
T1 sequence (Q13422 whole entry): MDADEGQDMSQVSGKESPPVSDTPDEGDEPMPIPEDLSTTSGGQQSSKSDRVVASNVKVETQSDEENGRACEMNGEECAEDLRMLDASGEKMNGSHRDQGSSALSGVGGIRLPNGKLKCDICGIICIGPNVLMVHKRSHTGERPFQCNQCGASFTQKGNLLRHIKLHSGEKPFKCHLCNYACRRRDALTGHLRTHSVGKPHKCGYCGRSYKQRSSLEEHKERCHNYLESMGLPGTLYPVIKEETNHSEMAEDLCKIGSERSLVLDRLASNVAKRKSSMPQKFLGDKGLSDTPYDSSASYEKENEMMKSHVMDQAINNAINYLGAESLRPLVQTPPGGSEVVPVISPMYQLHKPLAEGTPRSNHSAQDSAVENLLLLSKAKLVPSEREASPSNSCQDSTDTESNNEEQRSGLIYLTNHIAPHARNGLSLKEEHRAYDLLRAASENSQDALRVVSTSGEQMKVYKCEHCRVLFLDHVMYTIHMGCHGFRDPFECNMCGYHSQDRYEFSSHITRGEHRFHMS
T1 sequence (Q96SW2 whole entry): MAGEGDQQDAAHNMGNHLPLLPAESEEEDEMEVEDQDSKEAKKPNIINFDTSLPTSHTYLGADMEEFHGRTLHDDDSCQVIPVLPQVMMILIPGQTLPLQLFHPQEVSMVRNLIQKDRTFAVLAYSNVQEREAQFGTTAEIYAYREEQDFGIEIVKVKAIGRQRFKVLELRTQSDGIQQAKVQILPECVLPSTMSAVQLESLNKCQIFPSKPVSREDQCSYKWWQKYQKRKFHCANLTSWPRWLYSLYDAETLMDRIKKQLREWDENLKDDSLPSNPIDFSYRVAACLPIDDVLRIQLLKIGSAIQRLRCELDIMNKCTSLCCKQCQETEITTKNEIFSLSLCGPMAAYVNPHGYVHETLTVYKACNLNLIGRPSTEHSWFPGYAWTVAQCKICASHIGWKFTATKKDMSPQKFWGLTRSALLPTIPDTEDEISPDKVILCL
T1 sequence (Q16531 whole entry partner): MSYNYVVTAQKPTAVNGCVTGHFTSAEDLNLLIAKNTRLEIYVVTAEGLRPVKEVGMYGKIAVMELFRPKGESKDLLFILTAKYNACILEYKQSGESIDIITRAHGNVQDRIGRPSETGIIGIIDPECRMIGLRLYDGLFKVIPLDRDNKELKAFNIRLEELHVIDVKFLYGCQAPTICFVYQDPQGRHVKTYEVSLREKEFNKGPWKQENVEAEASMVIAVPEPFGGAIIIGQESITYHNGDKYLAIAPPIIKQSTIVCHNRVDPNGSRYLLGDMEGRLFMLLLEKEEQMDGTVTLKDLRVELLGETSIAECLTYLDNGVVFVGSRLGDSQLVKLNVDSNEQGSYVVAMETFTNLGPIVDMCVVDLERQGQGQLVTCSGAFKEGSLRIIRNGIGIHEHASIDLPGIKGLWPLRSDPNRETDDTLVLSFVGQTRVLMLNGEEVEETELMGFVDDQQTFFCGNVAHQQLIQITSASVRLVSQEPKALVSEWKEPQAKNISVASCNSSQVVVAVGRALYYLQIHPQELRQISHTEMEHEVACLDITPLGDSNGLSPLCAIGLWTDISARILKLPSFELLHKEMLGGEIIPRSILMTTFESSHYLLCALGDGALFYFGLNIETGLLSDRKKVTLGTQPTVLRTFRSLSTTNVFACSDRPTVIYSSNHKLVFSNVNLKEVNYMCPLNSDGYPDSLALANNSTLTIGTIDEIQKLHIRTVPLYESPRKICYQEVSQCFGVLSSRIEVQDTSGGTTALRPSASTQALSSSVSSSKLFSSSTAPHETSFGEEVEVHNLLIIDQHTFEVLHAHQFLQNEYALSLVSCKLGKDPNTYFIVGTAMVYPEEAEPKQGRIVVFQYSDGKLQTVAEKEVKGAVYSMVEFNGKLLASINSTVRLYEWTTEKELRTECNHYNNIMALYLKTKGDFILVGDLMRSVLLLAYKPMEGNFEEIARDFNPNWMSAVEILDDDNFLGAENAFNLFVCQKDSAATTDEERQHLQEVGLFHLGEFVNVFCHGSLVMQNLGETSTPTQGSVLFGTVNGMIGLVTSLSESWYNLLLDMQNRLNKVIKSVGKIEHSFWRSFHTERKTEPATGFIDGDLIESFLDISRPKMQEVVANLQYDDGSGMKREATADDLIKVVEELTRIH
In short: (§3)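 Cells at about 10^6 per mL were exposed to compound or DMSO for 6-8 h, lysed in RIPA buffer, and analysed by SDS-PAGE Western blot with IRDye secondary antibodies on an Odyssey imager. Values are % degradation binned as A <25%, B 25-<50%, C 50-<75%, D ≥75%.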

GSPT1 = molecular target: T2, GSPT1 (Homo sapiens, UniProt P15170+Q96SW2); experiment: GSPT1 degradation assay (Western blot, MV-4-11 cells); conditions: MV4-11, 6-8 h
T2 construct: Whole cell extracts were prepared using RIPA buffer; endogenous in cells; host or cells: MV-4-11
T2 sequence (P15170 whole entry): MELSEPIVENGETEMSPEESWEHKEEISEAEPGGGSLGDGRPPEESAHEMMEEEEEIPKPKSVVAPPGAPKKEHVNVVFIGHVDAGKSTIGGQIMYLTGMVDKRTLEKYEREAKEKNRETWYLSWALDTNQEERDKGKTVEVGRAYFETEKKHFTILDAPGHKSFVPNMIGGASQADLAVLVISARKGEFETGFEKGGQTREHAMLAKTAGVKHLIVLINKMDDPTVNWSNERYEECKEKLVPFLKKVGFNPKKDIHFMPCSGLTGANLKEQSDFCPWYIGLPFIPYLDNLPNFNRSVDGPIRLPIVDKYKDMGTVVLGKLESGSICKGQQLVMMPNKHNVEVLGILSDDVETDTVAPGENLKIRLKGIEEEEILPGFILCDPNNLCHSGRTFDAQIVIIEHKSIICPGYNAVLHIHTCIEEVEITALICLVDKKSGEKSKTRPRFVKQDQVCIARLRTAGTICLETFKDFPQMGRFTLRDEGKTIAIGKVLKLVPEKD
T2 sequence (Q96SW2 whole entry): as the sequence (Q96SW2 whole entry) above
T2 sequence (Q16531 whole entry partner): as the sequence (Q16531 whole entry partner) above
In short: as §3

CDK9 = molecular target: T3, CDK9 (Homo sapiens, UniProt P50750); experiment: CDK9 degradation assay (Western blot, MV-4-11 cells); conditions: 6-8 h; for Dmax at 0.1 µM: MV4-11, 0.1 μM; for Dmax at 1 µM: MV4-11, 1 μM
T3 construct: Whole cell extracts were prepared using RIPA buffer; endogenous in cells; host or cells: MV-4-11
T3 sequence (P50750 whole entry): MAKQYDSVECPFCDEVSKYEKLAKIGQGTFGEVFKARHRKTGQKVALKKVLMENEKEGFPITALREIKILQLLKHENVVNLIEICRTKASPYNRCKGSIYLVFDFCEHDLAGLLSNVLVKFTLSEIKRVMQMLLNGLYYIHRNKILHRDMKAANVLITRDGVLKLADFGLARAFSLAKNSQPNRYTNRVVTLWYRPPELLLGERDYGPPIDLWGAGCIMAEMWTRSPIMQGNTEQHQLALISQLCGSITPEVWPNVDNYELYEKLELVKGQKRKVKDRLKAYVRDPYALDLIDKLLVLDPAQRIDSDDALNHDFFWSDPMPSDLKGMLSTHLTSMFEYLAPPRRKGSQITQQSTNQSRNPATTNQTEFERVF
In short: as §3

CDK16 = molecular target: T4, CDK16 (Homo sapiens, UniProt Q00536); experiment: CDK16 degradation assay (Western blot, MV-4-11 cells); conditions: 6-8 h; for Dmax at 0.1 µM: MV4-11, 0.1 μM; for Dmax at 1 µM: MV4-11, 1 μM
T4 construct: Whole cell extracts were prepared using RIPA buffer; endogenous in cells; host or cells: MV-4-11
T4 sequence (Q00536 whole entry): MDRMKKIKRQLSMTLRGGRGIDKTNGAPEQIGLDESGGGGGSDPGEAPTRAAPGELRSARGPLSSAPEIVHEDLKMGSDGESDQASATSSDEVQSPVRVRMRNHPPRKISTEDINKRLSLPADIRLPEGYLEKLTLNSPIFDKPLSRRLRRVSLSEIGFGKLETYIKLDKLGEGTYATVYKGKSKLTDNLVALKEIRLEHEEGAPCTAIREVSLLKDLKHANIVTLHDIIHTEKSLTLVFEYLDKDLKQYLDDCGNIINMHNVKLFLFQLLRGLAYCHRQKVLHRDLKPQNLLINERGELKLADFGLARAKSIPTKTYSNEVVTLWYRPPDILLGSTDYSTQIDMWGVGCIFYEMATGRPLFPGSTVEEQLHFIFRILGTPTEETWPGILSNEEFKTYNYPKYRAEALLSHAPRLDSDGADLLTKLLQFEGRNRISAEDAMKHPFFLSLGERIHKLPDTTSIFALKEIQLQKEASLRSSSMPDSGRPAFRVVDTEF
In short: as §3

Structure (SMILES)	Dmax at 1 µM (IKAROS) [%]	Dmax at 1 µM (GSPT1) [%]	Dmax at 0.1 µM (CDK9) [%]	Dmax at 1 µM (CDK9) [%]	Dmax at 0.1 µM (CDK16) [%]	Dmax at 1 µM (CDK16) [%]	inhibition at 1 µM (IL-1β) [%]	inhibition at 1 µM (IL-6) [%]	inhibition at 1 µM (TNF-α) [%]	fold induction at 1 µM (IL-2)	viability at 1 µM (MOLM-13 cells) [%]
Cn1ncc(-c2cc(N[C@H]3CC[C@H](NCCCCCCCCNC(=O)NCc4cc5c(s4)C(=O)N(C4CCC(=O)NC4=O)C5)CC3)ncc2F)c1CC1CC1 (stereo partly shown) [Compound 59, 1-(8-(((1r,4r)-4-((4-(5-(cyclopropylmethyl)-1-methyl-1H-pyrazol-4-yl)-5-fluoropyridin-2-yl)amino)cyclohexyl)amino)octyl)-3-((5-(2,6-dioxopiperidin-3-yl)-6-oxo-5,6-dihydro-4H-thieno[2,3-c]pyrrol-2-yl)methyl)urea]	–	–	–	–	–	–	70 to 90	70 to 90	< 50	0.5 to 1	> 90
Cn1ncc(-c2nc(N[C@H]3CC[C@H](NCC(=O)NCCOCCOCCOCCNC(=O)NCc4cc5c(s4)C(=O)N(C4CCC(=O)NC4=O)C5)CC3)ncc2Cl)c1CC1CC1 (stereo partly shown) [Compound 46, 2-(((1r,4r)-4-((5-chloro-4-(5-(cyclopropylmethyl)-1-methyl-1H-pyrazol-4-yl)pyrimidin-2-yl)amino)cyclohexyl)amino)-N-(1-(5-(2,6-dioxopiperidin-3-yl)-6-oxo-5,6-dihydro-4H-thieno[2,3-c]pyrrol-2-yl)-3-oxo-7,10,13-trioxa-2,4-diazapentadecan-15-yl)acetamide]	–	–	–	–	–	–	70 to 90	70 to 90	50 to 70	0.1 to 0.5	> 90
CC(C)(C)c1cnc(CSc2cnc(NC(=O)C3CCN(CCCCCCCNCC(=O)NCc4cc5c(s4)C(=O)N(C4CCC(=O)NC4=O)C5)CC3)s2)o1 (stereo not shown) [Compound 57, N-(5-(((5-(tert-butyl)oxazol-2-yl)methyl)thio)thiazol-2-yl)-1-(7-((2-(((5-(2,6-dioxopiperidin-3-yl)-6-oxo-5,6-dihydro-4H-thieno[2,3-c]pyrrol-2-yl)methyl)amino)-2-oxoethyl)amino)heptyl)piperidine-4-carboxamide]	25 to 50	–	–	–	–	–	> 90	> 90	> 90	≤ 0.1	> 90
Cn1ncc(-c2nc(N[C@H]3CC[C@H](NCCCCCCNC(=O)NCc4cc5c(s4)C(=O)N(C4CCC(=O)NC4=O)C5)CC3)ncc2F)c1CC1CC1 (stereo partly shown) [Compound 21, 1-(6-(((1r,4r)-4-((4-(5-(cyclopropylmethyl)-1-methyl-1H-pyrazol-4-yl)-5-fluoropyrimidin-2-yl)amino)cyclohexyl)amino)hexyl)-3-((5-(2,6-dioxopiperidin-3-yl)-6-oxo-5,6-dihydro-4H-thieno[2,3-c]pyrrol-2-yl)methyl)urea]	≥ 75	–	–	–	–	–	< 50	< 50	< 50	0.1 to 0.5	> 90
Cc1nc2c(CNC(=O)NCCCCCCCCN[C@H]3CC[C@H](Nc4ncc(Cl)c(-c5cnn(C)c5CC5CC5)n4)CC3)scc2c(=O)n1C1CCC(=O)NC1=O (stereo partly shown) [Compound 61, 1-(8-(((1r,4r)-4-((5-chloro-4-(5-(cyclopropylmethyl)-1-methyl-1H-pyrazol-4-yl)pyrimidin-2-yl)amino)cyclohexyl)amino)octyl)-3-((3-(2,6-dioxopiperidin-3-yl)-2-methyl-4-oxo-3,4-dihydrothieno[3,4-d]pyrimidin-7-yl)methyl)urea]	25 to 50	–	–	–	–	–	> 90	> 90	> 90	0.1 to 0.5	> 90
CC(C)(C)c1cnc(CSc2cnc(NC(=O)C3CCN(CC(=O)NCCOCCNC(=O)NCc4scc5c4CN(C4CCC(=O)NC4=O)C5=O)CC3)s2)o1 (stereo not shown) [Compound 2, 3-{6-Oxo-2-[(3-{2-[2-(2-{4-[(5-{[5-(tert-butyl)-1,3-oxazol-2-yl]methylthio}-1,3-thiazol-2-ylamino)carbonyl]-1-piperidyl}acetylamino)ethoxy]ethyl}ureido)methyl]-3-thia-7-azabicyclo[3.3.0]octa-1,4-dien-7-yl}-2,6-piperidinedione]	25 to 50	–	–	–	–	–	> 90	> 90	70 to 90	0.1 to 0.5	> 90

Continued, in another order:

Dmax at 1 µM (IKAROS) [%]	Dmax at 1 µM (GSPT1) [%]	Dmax at 0.1 µM (CDK9) [%]	Dmax at 1 µM (CDK9) [%]	Dmax at 0.1 µM (CDK16) [%]	Dmax at 1 µM (CDK16) [%]	Structure (SMILES)	inhibition at 1 µM (IL-1β) [%]	inhibition at 1 µM (IL-6) [%]	inhibition at 1 µM (TNF-α) [%]	fold induction at 1 µM (IL-2)	viability at 1 µM (MOLM-13 cells) [%]
25 to 50	< 25	–	–	–	–	Cn1ncc(-c2cc(N[C@H]3CC[C@H](NCC(=O)NCCNCC(=O)NCc4cc5c(s4)C(=O)N(C4CCC(=O)NC4=O)C5)CC3)ncc2F)c1CC1CC1 (stereo partly shown) [Compound 63, 2-(((1r,4r)-4-((4-(5-(cyclopropylmethyl)-1-methyl-1H-pyrazol-4-yl)-5-fluoropyridin-2-yl)amino)cyclohexyl)amino)-N-(2-((2-(((5-(2,6-dioxopiperidin-3-yl)-6-oxo-5,6-dihydro-4H-thieno[2,3-c]pyrrol-2-yl)methyl)amino)-2-oxoethyl)amino)ethyl)acetamide]	–	–	–	> 1	> 90
–	–	50 to 75	≥ 75	< 25	< 25	CC(C)(C)c1cnc(CSc2cnc(NC(=O)C3CCN(CC(=O)NCCOCCOCCNC(=O)NCc4cc5c(s4)C(=O)N(C4CCC(=O)NC4=O)C5)CC3)s2)o1 (stereo not shown) [Compound 13, N-(5-(((5-(tert-butyl)oxazol-2-yl)methyl)thio)thiazol-2-yl)-1-(1-(5-(2,6-dioxopiperidin-3-yl)-6-oxo-5,6-dihydro-4H-thieno[2,3-c]pyrrol-2-yl)-3,14-dioxo-7,10-dioxa-2,4,13-triazapentadecan-15-yl)piperidine-4-carboxamide]	> 90	> 90	> 90	≤ 0.1	> 90
50 to 75	–	50 to 75	≥ 75	25 to 50	< 25	CC(C)(C)c1cnc(CSc2cnc(NC(=O)C3CCN(CC(=O)NCCOCCOCCNCC(=O)NCc4scc5c4CN(C4CCC(=O)NC4=O)C5=O)CC3)s2)o1 (stereo not shown) [Compound 26, N-(5-(((5-(tert-butyl)oxazol-2-yl)methyl)thio)thiazol-2-yl)-1-(1-(5-(2,6-dioxopiperidin-3-yl)-4-oxo-5,6-dihydro-4H-thieno[3,4-c]pyrrol-1-yl)-3,15-dioxo-8,11-dioxa-2,5,14-triazahexadecan-16-yl)piperidine-4-carboxamide]	> 90	> 90	70 to 90	≤ 0.1	> 90
25 to 50	–	25 to 50	≥ 75	< 25	< 25	CC(C)(C)c1cnc(CSc2cnc(NC(=O)C3CCN(CC(=O)NCCOCCOCCOCCNCC(=O)NCc4cc5c(s4)C(=O)N(C4CCC(=O)NC4=O)C5)CC3)s2)o1 (stereo not shown) [Compound 42, N-(5-(((5-(tert-butyl)oxazol-2-yl)methyl)thio)thiazol-2-yl)-1-(1-(5-(2,6-dioxopiperidin-3-yl)-6-oxo-5,6-dihydro-4H-thieno[2,3-c]pyrrol-2-yl)-3,18-dioxo-8,11,14-trioxa-2,5,17-triazanonadecan-19-yl)piperidine-4-carboxamide]	> 90	> 90	< 50	0.1 to 0.5	70 to 90
